Patent US10765674B2, “Prevention of HIV-infection” (Janssen Sciences Ireland Unlimited Company, priority 2005, dated 2020)
Where two headings read alike, the source gives them in different places.

Assay: Plasma kinetics of TMC278 in beagle dogs after single intramuscular administration
Type: in vivo
Settings: single IM 2.5 mg/kg, aqueous 30% DMA/50% PEG400 solution; for half-life / Cmax / Tmax / AUC(0-t): im; for AUC(0-t): read-out: AUC0-312 h; for concentration at 0 h: 0 h (predose); for concentration at 0.5 h: 0.5 h after dose; for concentration at 1 h: 1 h after dose; for concentration at 2 h: 2 h after dose; for concentration at 4 h: 4 h after dose; for concentration at 8 h: 8 h after dose; for concentration at 24 h: 24 h after dose; for concentration at 32 h: 32 h after dose; for concentration at 48 h: 48 h after dose; for concentration at 72 h: 72 h after dose; for concentration at 96 h: 96 h after dose; for concentration at 144 h: 144 h after dose; for concentration at 192 h: 192 h after dose; for concentration at 240 h: 240 h after dose; for concentration at 312 h: 312 h after dose; for concentration at 36 day: day 36; for concentration at 50 day: day 50; for concentration at 64 day: day 64; for concentration at 78 day: day 78; for concentration at 92 day: day 92; for concentration at 106 day: day 106; for concentration at 120 day: day 120; for concentration at 134 day: day 134; for concentration at 148 day: day 148
Procedure: The present study was performed in order to study the plasma kinetics and the absolute bioavailability of TMC278 in beagle dogs after single intramuscular administration (IM) of an aqueous 30% dimethylacetamide (DMA)/50% polyethylene glycol 400 (PEG400) solution of TMC278 at 2.5 mg/kg. The dogs were dosed IM.
Two male beagle dogs (dog No. 16924 and 16854), approximately 3 years old and weighing between 11 and 12 kg at the start of the experimental phase, were used in the present experiment. The dogs were dosed intramuscularly at 0.1 ml/kg body weight by injecting the formulation in the left (dog No. 16924) or right (dog No. 16854) m. biceps femoris.
One day before dose administration, TMC278 was formulated in an aqueous 30% (w/v) DMA/50% (w/v) PEG400 solution at 25 mg/ml. The ingredients of the solution were: TMC278, DMA 30% (w/v), PEG 400 50% (w/v) and pyrogenic free water. The content of TMC278 in the formulation was checked using LC. The concentration of TMC278 in the formulation was 25 mg/ml.
Blood samples (4 ml on EDTA) were taken from a jugular vein from the dogs at 0 (=predose), 0.5, 1, 2, 4, 8, 24, 32, 48, 72, 96, 144, 192, 240 and 312 h after dose administration. After sampling, the blood samples were immediately placed on melting ice and protected from light. Blood samples were centrifuged at approximately 1900×g for 10 minutes at 5° C. to allow plasma separation. Immediately after separation, plasma samples were protected from light, placed on melting ice and stored at ≤−18° C. until analysis. Frozen plasma samples were transferred to the Bioanalytical Department. Since TMC278 was still detectable in the plasma samples at 312 h post-dose, additional blood samples of both dogs were collected on the days 36, 50, 64, 78, 92, 106, 120, 134 and 148. These samples were analogously processed and analysed.
The concentration of TMC278 in dog plasma was determined by a qualified research LC-MS/MS method after solid phase extraction (SPE). Plasma concentrations of TMC278 were determined after proper sample clean up. The samples (0.1 ml aliquots of plasma) were extracted using a solid phase extraction method (Bond Elut Certify solid phase columns, 130 mg, SPE, Varian). The SPE column was conditioned with 3 ml methanol, 3 ml water and 1 ml acetic acid 1 M.
After addition of 3 ml acetic acid to 0.1 ml aliquots of plasma, the samples were extracted on the column followed by washing the column with 1 ml water, 1 ml acetic acid 1 M and 3 ml methanol. The column was eluted with 3 ml methanol/NH4OH 25% (98:2, v/v). The extract was evaporated to dryness and reconstituted in 150 μl of ammonium formate 0.01 M (adjusted to pH 4 with formic acid)/methanol (50/50). 20 μl-aliquots were injected onto a reversed phase LC-column (100×4.6 mm ID, packed with 3 μm Hypersil C18 BDS) with a flow of 800 μl/min. The elution mixture was ammonium formate 0.01 M (adjusted to pH 4 with formic acid)/methanol (40:60, v/v). The flow-rate to the mass spectrometer was about 100 μl/min after splitting. LC-MS/MS analysis was carried out on an API-3000 system (Applied Biosystems), which was coupled to an HPLC-system.
Individual plasma concentration-time profiles were subjected to a non-compartmental pharmacokinetic analysis. Peak plasma concentrations (Cmax) and corresponding peak times (Tmax) were determined. The AUC from time 0 to time t (AUC0-t, where t is the time point associated with the last measurable concentration above the limit of quantification) was calculated by means of the linear/log trapezoidal rule: i.e. linear trapezoidal rule up to Tmax: AUC0-Tmax=Σ[(ti+1−ti). (Ci+Ci+1)/2], and log trapezoidal for the remainder of the curve: AUCTmax-t=Σ[(ti+1−ti). (Ci−Ci+1)/ln(Ci/Ci+1)], Ci and Ci+1 being the plasma concentrations at times ti and ti+1, respectively. […]

[1] = male, beagle, dog, plasma, 2.5 mg/kg, dog No. 16854
[2] = male, beagle, dog, plasma, 2.5 mg/kg, dog No. 16924
[3] = male, beagle, dog, plasma, 2.5 mg/kg, mean (n=2)
[4] = male, beagle, dog, plasma, intramuscular, 2.5 mg/kg, dog No. 16854
[5] = male, beagle, dog, plasma, intramuscular, 2.5 mg/kg, dog No. 16854, read-out: plasma concentration during the wash-out period
[6] = male, beagle, dog, plasma, intramuscular, 2.5 mg/kg, dog No. 16924
[7] = male, beagle, dog, plasma, intramuscular, 2.5 mg/kg, dog No. 16924, read-out: plasma concentration during the wash-out period
[8] = male, beagle, dog, plasma, intramuscular, 2.5 mg/kg, mean (n=2)
[9] = male, beagle, dog, plasma, intramuscular, 2.5 mg/kg, mean (n=2), read-out: plasma concentration during the wash-out period

Compound: Cc1cc(C=CC#N)cc(C)c1Nc1ccnc(Nc2ccc(C#N)cc2)n1 [TMC278, 4-[[4-[[4-(2-cyanoethenyl)-2,6-dimethylphenyl]amino]-2-pyrimidinyl]-amino]benzonitrile]
- plasma levels during the wash-out period (range) (both dogs, days 36 to 148): 1.24 to 4.23 ng/mL
- plasma concentration during the wash-out period (dog No. 16924, day 272): <1.00 ng/mL
- half-life (male, beagle, dog, plasma, 2.5 mg/kg, dog No. 16854, half-life between 8 h and 24 h, read-out: t1/2, 8-24 h (converted)): 8.9 h
- Cmax [1]: 39.9 ng/mL
- Tmax [1]: 8 h
- AUC(0-t) [1]: 2120 ng·h/mL
- half-life (male, beagle, dog, plasma, 2.5 mg/kg, dog No. 16854, read-out: t1/2, 24-72 h (converted)): 75.2 h
- half-life (male, beagle, dog, plasma, 2.5 mg/kg, dog No. 16924, half-life between 1 h and 24 h, read-out: t1/2, 1-24 h (converted)): 15.1 h
- Cmax [2]: 23.8 ng/mL
- Tmax [2]: 1 h
- AUC(0-t) [2]: 1600 ng·h/mL
- half-life (male, beagle, dog, plasma, 2.5 mg/kg, dog No. 16924, read-out: t1/2, 24-72 h (converted)): 51 h
- Cmax [3]: 31.9 ng/mL
- Tmax [3]: 5 h
- AUC(0-t) [3]: 1860 ng·h/mL
- half-life (male, beagle, dog, plasma, 2.5 mg/kg, mean (n=2), read-out: t1/2, 24-72 h (converted)): 63 h
- concentration at 0 h [4]: < 1 ng/mL
- concentration at 0.5 h [4]: 13.5 ng/mL
- concentration at 1 h [4]: 17 ng/mL
- concentration at 2 h [4]: 20.6 ng/mL
- concentration at 4 h [4]: 27.2 ng/mL
- concentration at 8 h [4]: 39.9 ng/mL
- concentration at 24 h [4]: 11.4 ng/mL
- concentration at 32 h [4]: 10.7 ng/mL
- concentration at 48 h [4]: 9.03 ng/mL
- concentration at 72 h [4]: 7.37 ng/mL
- concentration at 96 h [4]: 6.4 ng/mL
- concentration at 144 h [4]: 3.19 ng/mL
- concentration at 192 h [4]: 2.8 ng/mL
- concentration at 240 h [4]: 6.16 ng/mL
- concentration at 312 h [4]: 4.24 ng/mL
- concentration at 36 day [5]: 3.66 ng/mL
- concentration at 50 day [5]: 4.1 ng/mL
- concentration at 64 day [5]: 2.18 ng/mL
- concentration at 78 day [5]: 2.62 ng/mL
- concentration at 92 day [5]: 2.32 ng/mL
- concentration at 106 day [5]: 2.02 ng/mL
- concentration at 120 day [5]: 1.87 ng/mL
- concentration at 134 day [5]: 1.67 ng/mL
- concentration at 148 day [5]: 1.41 ng/mL
- concentration at 0 h [6]: < 1 ng/mL
- concentration at 0.5 h [6]: 21.3 ng/mL
- concentration at 1 h [6]: 23.8 ng/mL
- concentration at 2 h [6]: 20.9 ng/mL
- concentration at 4 h [6]: 17.1 ng/mL
- concentration at 8 h [6]: 15.1 ng/mL
- concentration at 24 h [6]: 7.7 ng/mL
- concentration at 32 h [6]: 6.65 ng/mL
- concentration at 48 h [6]: 6.03 ng/mL
- concentration at 72 h [6]: 3.9 ng/mL
- concentration at 96 h [6]: 3.97 ng/mL
- concentration at 144 h [6]: 3.65 ng/mL
- concentration at 192 h [6]: 3.57 ng/mL
- concentration at 240 h [6]: 4.38 ng/mL
- concentration at 312 h [6]: 5.97 ng/mL
- concentration at 36 day [7]: 3.05 ng/mL
- concentration at 50 day [7]: 2.12 ng/mL
- concentration at 64 day [7]: 2.42 ng/mL
- concentration at 78 day [7]: 1.69 ng/mL
- concentration at 92 day [7]: 2.51 ng/mL
- concentration at 106 day [7]: 1.75 ng/mL
- concentration at 120 day [7]: 4.23 ng/mL
- concentration at 134 day [7]: 1.61 ng/mL
- concentration at 148 day [7]: 1.24 ng/mL
- concentration at 272 day (male, beagle, dog, plasma, intramuscular, 2.5 mg/kg, dog No. 16924, day 272, read-out: plasma concentration during the wash-out period): < 1 ng/mL
- concentration at 0 h [8]: < 1 ng/mL
- concentration at 0.5 h [8]: 17.4 ng/mL
- concentration at 1 h [8]: 20.4 ng/mL
- concentration at 2 h [8]: 20.8 ng/mL
- concentration at 4 h [8]: 22.2 ng/mL
- concentration at 8 h [8]: 27.5 ng/mL
- concentration at 24 h [8]: 9.55 ng/mL
- concentration at 32 h [8]: 8.68 ng/mL
- concentration at 48 h [8]: 7.53 ng/mL
- concentration at 72 h [8]: 5.64 ng/mL
- concentration at 96 h [8]: 5.19 ng/mL
- concentration at 144 h [8]: 3.42 ng/mL
- concentration at 192 h [8]: 3.19 ng/mL
- concentration at 240 h [8]: 5.27 ng/mL
- concentration at 312 h [8]: 5.11 ng/mL
- concentration at 36 day [9]: 3.36 ng/mL
- concentration at 50 day [9]: 3.11 ng/mL
- concentration at 64 day [9]: 2.3 ng/mL
- concentration at 78 day [9]: 2.16 ng/mL
- concentration at 92 day [9]: 2.42 ng/mL
- concentration at 106 day [9]: 1.89 ng/mL
- concentration at 120 day [9]: 3.05 ng/mL
- concentration at 134 day [9]: 1.64 ng/mL
- concentration at 148 day [9]: 1.33 ng/mL
- t1/2, 24-72 h (mean (n=2)): 63.1 h
